In patent US9505735B2, “Compounds for treating infectious diseases” (Whitehead Institute for Biomedical Research, priority 2012, dated 2016):

Experiments:
Gwt1 = molecular target: T1, Gwt1 (Saccharomyces cerevisiae, UniProt P47026); assay: Antifungal susceptibility testing, screening strains with plasmid-borne GWT1 (low or high copy); type: cell-based, S. cerevisiae
T1 construct: Wildtype S. cerevisiae BY4741; endogenous in cells; host or cells: S. cerevisiae BY4741 (wild type)
T1 sequence (P47026 1-490): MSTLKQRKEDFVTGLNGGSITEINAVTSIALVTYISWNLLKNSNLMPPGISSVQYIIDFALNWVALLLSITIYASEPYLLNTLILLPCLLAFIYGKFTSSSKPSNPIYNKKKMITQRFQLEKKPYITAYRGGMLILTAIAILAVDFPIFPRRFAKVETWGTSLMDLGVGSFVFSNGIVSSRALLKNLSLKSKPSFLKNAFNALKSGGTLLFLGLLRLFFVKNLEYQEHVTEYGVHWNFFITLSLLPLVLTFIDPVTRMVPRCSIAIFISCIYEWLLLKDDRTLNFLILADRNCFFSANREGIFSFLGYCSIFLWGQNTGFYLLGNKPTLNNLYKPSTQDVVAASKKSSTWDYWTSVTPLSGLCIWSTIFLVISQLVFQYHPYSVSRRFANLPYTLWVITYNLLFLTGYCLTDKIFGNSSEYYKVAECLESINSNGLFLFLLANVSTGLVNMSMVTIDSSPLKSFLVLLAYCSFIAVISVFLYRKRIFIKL
Procedure: (§1) Sensitivity to gepinacin was determined in 96-well, flat bottom microtiter plates using a modification of the NCCLS broth microdilution protocol CLS M27-A3 and RPMI as culture medium. Fungi were inoculated at ˜10^3 cells per ml and incubated for 48 hours at 37° C. after which plates were sealed, shaken and the optical density read at 600 nm (OD600) on a Tecan Safire 2 plate reader. All samples were run in duplicate or triplicate and assays were repeated at least once. Results are expressed as fraction of growth in the absence of compound and the mean and standard deviation are plotted. For the mold A. terreus, inoculum was 10^4 cells per ml and plates were incubated at 35° C. for 48 hours in the dark. Plates were then visually scored as specified by CLSI document M38-A2 to determine the MIC50 and MIC80.
Because GWT1 deletion is lethal in S. cerevisiae strain BY4741, a haploid shuttle strain was constructed in which the genomic copy of GWT1 was deleted and replaced by GWT1 on a plasmid that also encoded the URA3 gene and a G418-resistance gene. To construct this shuttle strain a gwt1Δ/GWT1 heterozygous deletion mutant was transformed with pAGGPD416-GWT1, sporulated and dissected. A colony was selected that grew on both SD-URA and G418-containing plates. PCR with the deletion specific primers (http://wwwsequence.stanford.edu/group/yeast_deletion_project/deletions3.html) was performed to confirm the GWT1 deletion. To change the source of GWT, this shuttle strain was transformed with plasmids containing GWT1 (as a control) or PIG-W and the LEU2 auxotrophy gene followed by selection for growth on SD-LEU plates. Plasmids were constructed by conventional Gateway technology using a GWT1 encoding entry vector and either pAG415GPDccdB or pAG425GPDccdB as the destination vectors. Positive colonies were selected and grown on 5-fluoroorotic acid (5-FOA)-containing plates to promote loss of the pAGGPD416-GWT1 plasmid. The colonies from this plate were then tested for return of uridine auxotrophy to confirm pAGGPD416-GWT1 loss. The PIG-W expression vector was constructed by recombination in yeast as follows. The pAG415GPDccdB vector was cut with Xho1 and Xba1 and the larger piece was gel and column purified. The coding sequence of PIG-W was PCR amplified from the entry clone so that it would have ends facilitating recombination with the cut vector. The shuttle strain was then transformed with these two DNA fragments and plated on SD-LEU plates to select for recombinants. PIG-W plasmid was isolated from the final strain and sequence verified.
The following gepinacin analogs were tested for activity against Gwt1. Gepinacin, M3, CM2, CM4, CM6, CM7, CM8, and 857621-56-8 were available commercially. The compounds were tested using the “Antifungal Susceptibility Testing” protocol described above. Fungi tested are described in the “Fungal Strains” section above.
An S. cerevesiae strain was generated in which the endogenous Gwt1 gene was deleted. Plasmids (either high copy or low copy) with either S. cerevesiae or human Gwt1 were introduced to produce strains bearing such plasmids expressing either S. cerevesiae or human Gwt1 from a constitutive promoter. Yeast strains were cultured in liquid media in the presence of indicated compounds. Shown in FIGS. 22A-D show the effect of the indicated compounds on growth (assessed by OD600) and viability (assessed using Bactiter Glo) of the yeast strain with high copy or low copy plasmid containing S. cerevesiae Gwt1. The compounds had no effect on strains with the human Gwt1, thus showing the compounds' sensitivity for the fungal (yeast) Gwt1 gene.

Candida albicans = assay: Antifungal susceptibility testing, wild type and drug-resistant strains; type: cell-based
Procedure: Anti-fungal susceptibility testing of a fluconazole-resistant C. albicans strain under standard conditions. Yeast were incubated at 30° C. for 24 hours with serial dilutions of the indicated compounds. Growth was monitored by OD600 and is expressed as fraction of the growth observed in the absence of compound.
Archives of all strains were maintained in 25% glycerol at −80° C. Standard S. cerevisiae lab strains W303, BY4741, BY4742 and BY4743 were used for experiments. The C. albicans wild type strain in FIG. 1 was CaI4, a standard laboratory strain (Fonzi, et al. (1993) Genetics 134, 717-728). […]
as §1, with “All samples were run in duplicate or triplicate and assays were repeated at least once.” left out, “For the mold A. terreus, inoculum was 10^4 cells per ml and plates were incubated at 35° C. for 48 hours in the dark.” left out

**Q.** With `COc1ccc(NC(=O)COc2cccc(OCC(C)C)c2)cc1` [gepinacin] as the compound, how does the “cell growth of the strain expressing the yeast gene (GWT1)” value (Gwt1) read?
**A.** potently inhibited

**Q.** What about the growth inhibition (Candida albicans) of the same compound?
**A.** inhibited the growth

**Q.** What about the “growth inhibition of isolates resistant to the three major classes of antifungals” value (Candida albicans; fluconazole-, amphotericin B-, caspofungin-resistant strains) of the same compound?
**A.** inhibited the growth of multiple isolates
